≈ marks a conversion by molar mass, not a printed value.
system: P388; assay: In vitro cytotoxicity against the P388 murine leukemia cell line was determined; assay type: functional; conditions: Mus musculus, read-out: ID50 (the source's name)

In order of rising IC50:
1. CCCCCCCCCCCC(=O)c1ccc(CO)[nH]1  21 µg/mL (≈ 75.2 µM)
2. CCCCCCCCCCCCCCCCCCC(=O)c1ccc(CO)[nH]1  24 µg/mL (≈ 63.6 µM)
3. CCCCCCCCCCCCC(=O)c1ccc(CO)[nH]1  52 µg/mL (≈ 177 µM)
4. CCCCCC(=O)c1ccc(CO)[nH]1  78 µg/mL (≈ 399 µM)
